Experimental data reported in patent publication US20220281848A1, “PYRAZOLE-SUBSTITUTED PYRROLIDINONES AS HERBICIDES” (FMC Corporation, priority 2019, published 2022).

How the values were obtained:
Assay type in all cases: in vivo
[1] = tested on: giant foxtail (Setaria faberi, SETFA); assay: Test A pre-emergence, giant foxtail; details: after 13 d
Summary of the method: (§1)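 Seeds were sown in standard soil in pots, kept one day in a glasshouse (24/16° C. day/night, 14 h light, 65% humidity), then sprayed with compound in acetone/water (50:50) containing 0.5% Tween 20 at 15.625, 62.5 or 250 g/ha. Plants grew on under the same conditions, watered twice daily, and damage was scored after 13 d (0 = none, 100 = total).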

[2] = tested on: redroot pigweed (Amaranthus retroflexus, AMARE); assay: Test A pre-emergence, redroot pigweed; details: after 13 d
Summary of the method: as §1

[3] = tested on: ivy-leaved morning glory (Ipomoea hederacea, IPOHE); assay: Test A pre-emergence, ivy-leaved morning glory; details: after 13 d
Summary of the method: as §1

[4] = tested on: corn (Zea mays, ZEAMX); assay: Test A pre-emergence, corn; details: after 13 d
Summary of the method: as §1

[5] = tested on: ivy-leaved morning glory (Ipomoea hederacea, IPOHE); assay: Test A post-emergence, ivy-leaved morning glory; details: after 13 d
Summary of the method: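 Plants were grown 8 d in a glasshouse (24/16° C day/night, 14 h light, 65% humidity), then sprayed post-emergence at 15.625, 62.5 or 250 g/ha in acetone/water (50:50) with 0.5% Tween 20. Damage was scored visually after 13 d (0 = none, 100 = total).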

[6] = tested on: wheat; assay: Test D pre-emergence, wheat seed treated with a herbicide safener; details: 100=total damage, 0=no damage
Experimental: A formulation containing 50 g/L of the test chemical was prepared by dissolving the active ingredient in a mixture of organic solvents and emulsifier, details of which are provided in the table. This formulation was then mixed with a small, variable amount of acetone to aid dissolution, before addition of a 0.2% v/v aqueous solution of an adjuvant, as the aqueous diluent, to form an aqueous spray solution which contains a predetermined concentration of the active ingredient.
This aqueous spray solution was then sprayed onto plants including maize and wheat that had been seed treated with a herbicide safener, after one day's cultivation (for pre-emergence) or after about 12 days' cultivation (for post-emergence). The plants were grown from seeds sown in standard soil, placed in a glasshouse under controlled conditions (at 24/18° C. or 20/16° C., day/night; 16 h light; 65% humidity). After spray application the plants were then grown in a glasshouse under the same conditions and watered twice daily. After 15 d for post-emergence and 20 DAA for pre-emergence the test was evaluated (100=total damage to plant; 0=no damage to plant).

CN1CC(c2cc(C(F)(F)F)n(C)n2)C(C(=O)Nc2cccc(F)c2C(F)(F)F)C1=O (racemic) [Compound 19]
damage to plant (100=total damage; 0=no damage) SETFA ([1]; Pre-Emergence at 15.625 g/ha): 80
damage to plant (100=total damage; 0=no damage) SETFA ([1]; Pre-Emergence at 62.5 g/ha): 90
damage to plant (100=total damage; 0=no damage) SETFA ([1]; Pre-Emergence at 250 g/ha): 90
damage to plant (100=total damage; 0=no damage) AMARE ([2]; Pre-Emergence at 15.625 g/ha): 0
damage to plant (100=total damage; 0=no damage) AMARE ([2]; Pre-Emergence at 62.5 g/ha): 0
damage to plant (100=total damage; 0=no damage) AMARE ([2]; Pre-Emergence at 250 g/ha): 0
damage to plant (100=total damage; 0=no damage) IPOHE ([3]; Pre-Emergence at 15.625 g/ha): 0
damage to plant (100=total damage; 0=no damage) IPOHE ([3]; Pre-Emergence at 62.5 g/ha): 0
damage to plant (100=total damage; 0=no damage) IPOHE ([3]; Pre-Emergence at 250 g/ha): 10
damage to plant (100=total damage; 0=no damage) ZEAMX ([4]; Pre-Emergence at 15.625 g/ha): 0
damage to plant (100=total damage; 0=no damage) ZEAMX ([4]; Pre-Emergence at 62.5 g/ha): 0
damage to plant (100=total damage; 0=no damage) ZEAMX ([4]; Pre-Emergence at 250 g/ha): 20
damage to plant (100=total damage; 0=no damage) IPOHE ([5]; Post-Emergence at 15.625 g/ha): 0
damage to plant (100=total damage; 0=no damage) IPOHE ([5]; Post-Emergence at 62.5 g/ha): 0
damage to plant (100=total damage; 0=no damage) IPOHE ([5]; Post-Emergence at 250 g/ha): 0
damage to plant, TRZAW ([6]; rate 15, 20 DAA): 0
damage to plant, TRZAW ([6]; rate 30, 20 DAA): 0
damage to plant, TRZAW ([6]; rate 60, 20 DAA): 0
damage to plant, TRZAW ([6]; rate 130, 20 DAA): 0
damage to plant, TRZAW ([6]; rate 250, 20 DAA): 10
damage to plant, TRZAW ([6]; rate 500, 20 DAA): 60
